Measured values as given in BindingDB's records for PubMed 31761383 (n/a, 2020).

Experiments:
[1] = biological target: T1, Amine oxidase [flavin-containing] A (Rattus norvegicus, UniProt P21396); assay: Inhibition of rat brain synaptosome MAO-A
T1 sequence (P21396 whole entry): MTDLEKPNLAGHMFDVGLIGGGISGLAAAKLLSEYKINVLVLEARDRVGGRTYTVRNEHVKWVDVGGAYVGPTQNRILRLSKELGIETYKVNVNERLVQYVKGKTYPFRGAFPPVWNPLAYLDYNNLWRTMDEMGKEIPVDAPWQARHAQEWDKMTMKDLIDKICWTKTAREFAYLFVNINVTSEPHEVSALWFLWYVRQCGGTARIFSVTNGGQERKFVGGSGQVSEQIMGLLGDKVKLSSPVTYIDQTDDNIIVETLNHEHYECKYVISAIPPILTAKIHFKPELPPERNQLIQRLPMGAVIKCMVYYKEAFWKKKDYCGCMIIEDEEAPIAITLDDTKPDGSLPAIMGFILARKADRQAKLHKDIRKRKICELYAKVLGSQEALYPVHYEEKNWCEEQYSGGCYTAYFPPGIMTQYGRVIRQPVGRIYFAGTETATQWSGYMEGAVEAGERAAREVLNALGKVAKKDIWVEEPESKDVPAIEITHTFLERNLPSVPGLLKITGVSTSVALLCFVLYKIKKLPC

[2] = biological target: T2, Amine oxidase [flavin-containing] B (Rattus norvegicus, UniProt P19643); assay: Inhibition of rat brain synaptosome MAO-B
T2 sequence (P19643 whole entry): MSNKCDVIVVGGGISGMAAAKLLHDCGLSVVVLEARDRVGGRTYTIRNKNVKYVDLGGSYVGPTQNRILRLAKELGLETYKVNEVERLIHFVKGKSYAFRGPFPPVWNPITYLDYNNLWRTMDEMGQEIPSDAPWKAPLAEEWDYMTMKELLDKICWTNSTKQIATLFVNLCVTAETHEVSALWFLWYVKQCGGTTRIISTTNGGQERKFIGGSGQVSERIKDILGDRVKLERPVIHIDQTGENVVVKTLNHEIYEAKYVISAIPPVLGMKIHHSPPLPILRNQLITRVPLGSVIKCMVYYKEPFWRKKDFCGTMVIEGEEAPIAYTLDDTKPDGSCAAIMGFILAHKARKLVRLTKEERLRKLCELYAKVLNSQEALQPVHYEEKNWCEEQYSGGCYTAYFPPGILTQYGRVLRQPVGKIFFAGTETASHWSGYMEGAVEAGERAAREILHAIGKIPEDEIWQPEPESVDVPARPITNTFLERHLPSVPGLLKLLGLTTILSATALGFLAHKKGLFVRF

- IC50 [1]: 2.3 nM
- IC50 [2]: 13 nM
Compound: Cc1c(C(=O)CC(C#N)C#N)c(=O)n(-c2ccccc2)n1C
